From patent publication US9096593B2, “Compounds and methods for kinase modulation, and indications therefor” (Plexxikon Inc., priority 2009, dated 2015)
pIC50: −log10 of the molar value. Like-named read-outs stand apart in the source and are kept apart here.

How the values were obtained:
c-Kit kinase = c-Kit kinase (Homo sapiens (Human), UniProt P10721); assay: c-Kit kinase biochemical activity assay (AlphaScreen, biotin-(E4Y)10 phosphorylation)
CYP2D6 = CYP2D6 (Homo sapiens (Human), UniProt P10635); assay: CYP enzyme inhibition, fluorescent substrate; conditions: for IC50: read-out: Cyp IC50 (μM) 2D6
CYP2D6, sequence (P10635 whole entry): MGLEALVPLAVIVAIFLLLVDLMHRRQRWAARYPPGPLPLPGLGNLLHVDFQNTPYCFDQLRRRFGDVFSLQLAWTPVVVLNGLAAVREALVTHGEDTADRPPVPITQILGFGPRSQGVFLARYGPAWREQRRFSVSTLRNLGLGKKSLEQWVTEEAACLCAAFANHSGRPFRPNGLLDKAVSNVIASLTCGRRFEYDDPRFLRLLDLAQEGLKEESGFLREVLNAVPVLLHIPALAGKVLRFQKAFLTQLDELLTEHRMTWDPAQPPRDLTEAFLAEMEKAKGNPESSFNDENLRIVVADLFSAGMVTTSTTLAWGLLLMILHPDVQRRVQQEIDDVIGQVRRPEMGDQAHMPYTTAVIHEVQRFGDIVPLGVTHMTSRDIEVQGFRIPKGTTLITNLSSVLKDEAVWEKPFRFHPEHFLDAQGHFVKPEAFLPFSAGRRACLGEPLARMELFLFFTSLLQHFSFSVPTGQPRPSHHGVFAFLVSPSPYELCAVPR

CYP3A4(BFC) = CYP3A4(BFC) (Homo sapiens (Human), UniProt P08684); assay: CYP enzyme inhibition, fluorescent substrate; conditions: for IC50: read-out: Cyp IC50 (μM) 3A4(BFC), BFC substrate
CYP3A4(BFC), sequence (P08684 whole entry): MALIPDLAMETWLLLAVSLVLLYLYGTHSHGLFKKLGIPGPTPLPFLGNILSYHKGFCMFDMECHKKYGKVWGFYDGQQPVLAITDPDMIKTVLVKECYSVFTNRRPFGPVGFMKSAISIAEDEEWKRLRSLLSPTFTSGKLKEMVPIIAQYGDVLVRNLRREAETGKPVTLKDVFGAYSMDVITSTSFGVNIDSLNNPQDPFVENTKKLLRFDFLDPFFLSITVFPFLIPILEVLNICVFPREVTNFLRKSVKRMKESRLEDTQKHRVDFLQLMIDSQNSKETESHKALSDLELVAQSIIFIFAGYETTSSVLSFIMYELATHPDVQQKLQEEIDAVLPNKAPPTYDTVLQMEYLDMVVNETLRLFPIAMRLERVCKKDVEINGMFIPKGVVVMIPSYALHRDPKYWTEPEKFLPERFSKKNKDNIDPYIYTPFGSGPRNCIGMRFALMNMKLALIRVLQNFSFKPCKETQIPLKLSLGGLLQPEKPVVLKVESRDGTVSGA
Summary of the method: (§1)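 […]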

CYP2C19 = CYP2C19 (Homo sapiens (Human), UniProt P33261); assay: CYP enzyme inhibition, fluorescent substrate; conditions: for IC50: read-out: Cyp IC50 (μM) 2C19
CYP2C19, sequence (P33261 whole entry): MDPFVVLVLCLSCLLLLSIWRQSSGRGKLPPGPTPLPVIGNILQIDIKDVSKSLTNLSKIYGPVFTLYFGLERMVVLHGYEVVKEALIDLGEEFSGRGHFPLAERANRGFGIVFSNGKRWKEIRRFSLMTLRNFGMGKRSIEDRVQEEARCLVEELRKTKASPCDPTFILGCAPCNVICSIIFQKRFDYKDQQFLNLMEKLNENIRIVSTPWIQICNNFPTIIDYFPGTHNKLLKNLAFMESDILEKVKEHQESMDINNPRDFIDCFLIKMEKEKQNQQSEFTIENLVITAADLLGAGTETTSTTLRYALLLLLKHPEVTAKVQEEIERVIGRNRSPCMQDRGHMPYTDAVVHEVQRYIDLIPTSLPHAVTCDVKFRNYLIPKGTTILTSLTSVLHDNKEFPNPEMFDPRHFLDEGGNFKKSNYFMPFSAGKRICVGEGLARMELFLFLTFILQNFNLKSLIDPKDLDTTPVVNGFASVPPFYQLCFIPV
Summary of the method: as §1

CYP3A4(BQ) = CYP3A4(BQ) (Homo sapiens (Human), UniProt P08684); assay: CYP enzyme inhibition, fluorescent substrate; conditions: for IC50: read-out: Cyp IC50 (μM) 3A4(BQ), BQ substrate
CYP3A4(BQ), sequence (P08684 whole entry): as the sequence (P08684 whole entry) above
Summary of the method: as §1

CYP1A2 = CYP1A2 (Homo sapiens (Human), UniProt P05177); assay: CYP enzyme inhibition, fluorescent substrate
CYP1A2, sequence (P05177 whole entry): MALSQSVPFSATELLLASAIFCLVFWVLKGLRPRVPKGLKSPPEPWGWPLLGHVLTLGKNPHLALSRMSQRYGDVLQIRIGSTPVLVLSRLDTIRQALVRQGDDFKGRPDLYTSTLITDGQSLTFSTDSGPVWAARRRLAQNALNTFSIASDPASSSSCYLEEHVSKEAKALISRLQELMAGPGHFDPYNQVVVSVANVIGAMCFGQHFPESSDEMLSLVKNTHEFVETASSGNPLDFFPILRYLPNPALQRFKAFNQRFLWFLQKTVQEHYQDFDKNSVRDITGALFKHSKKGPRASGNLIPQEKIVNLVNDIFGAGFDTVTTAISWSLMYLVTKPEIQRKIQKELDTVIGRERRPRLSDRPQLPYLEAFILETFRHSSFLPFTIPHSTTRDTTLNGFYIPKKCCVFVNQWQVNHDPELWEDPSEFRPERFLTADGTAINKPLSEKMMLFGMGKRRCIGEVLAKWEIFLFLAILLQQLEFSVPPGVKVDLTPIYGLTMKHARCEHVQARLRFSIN

CYP2C9 = CYP2C9 (Homo sapiens (Human), UniProt P11712); assay: CYP enzyme inhibition, fluorescent substrate; conditions: for IC50: read-out: Cyp IC50 (μM) 2C9
CYP2C9, sequence (P11712 whole entry): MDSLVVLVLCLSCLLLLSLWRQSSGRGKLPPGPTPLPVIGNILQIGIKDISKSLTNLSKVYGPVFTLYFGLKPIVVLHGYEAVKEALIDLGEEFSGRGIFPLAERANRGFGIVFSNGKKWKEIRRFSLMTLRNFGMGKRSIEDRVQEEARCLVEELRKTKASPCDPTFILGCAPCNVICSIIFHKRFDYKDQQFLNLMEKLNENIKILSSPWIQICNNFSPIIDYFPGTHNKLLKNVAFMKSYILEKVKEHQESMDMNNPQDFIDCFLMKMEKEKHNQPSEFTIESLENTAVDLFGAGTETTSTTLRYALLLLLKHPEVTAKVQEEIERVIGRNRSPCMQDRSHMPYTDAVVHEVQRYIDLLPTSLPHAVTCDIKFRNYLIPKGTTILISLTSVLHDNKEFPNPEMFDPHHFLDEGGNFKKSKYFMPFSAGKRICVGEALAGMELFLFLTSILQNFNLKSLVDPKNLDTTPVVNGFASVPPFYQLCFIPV
Summary of the method: as §1

Fms kinase = Fms kinase (Homo sapiens (Human), UniProt P07333); assay: Fms kinase biochemical activity assay (AlphaScreen, biotin-(E4Y)10 phosphorylation)
Fms kinase, sequence (P07333 20-972): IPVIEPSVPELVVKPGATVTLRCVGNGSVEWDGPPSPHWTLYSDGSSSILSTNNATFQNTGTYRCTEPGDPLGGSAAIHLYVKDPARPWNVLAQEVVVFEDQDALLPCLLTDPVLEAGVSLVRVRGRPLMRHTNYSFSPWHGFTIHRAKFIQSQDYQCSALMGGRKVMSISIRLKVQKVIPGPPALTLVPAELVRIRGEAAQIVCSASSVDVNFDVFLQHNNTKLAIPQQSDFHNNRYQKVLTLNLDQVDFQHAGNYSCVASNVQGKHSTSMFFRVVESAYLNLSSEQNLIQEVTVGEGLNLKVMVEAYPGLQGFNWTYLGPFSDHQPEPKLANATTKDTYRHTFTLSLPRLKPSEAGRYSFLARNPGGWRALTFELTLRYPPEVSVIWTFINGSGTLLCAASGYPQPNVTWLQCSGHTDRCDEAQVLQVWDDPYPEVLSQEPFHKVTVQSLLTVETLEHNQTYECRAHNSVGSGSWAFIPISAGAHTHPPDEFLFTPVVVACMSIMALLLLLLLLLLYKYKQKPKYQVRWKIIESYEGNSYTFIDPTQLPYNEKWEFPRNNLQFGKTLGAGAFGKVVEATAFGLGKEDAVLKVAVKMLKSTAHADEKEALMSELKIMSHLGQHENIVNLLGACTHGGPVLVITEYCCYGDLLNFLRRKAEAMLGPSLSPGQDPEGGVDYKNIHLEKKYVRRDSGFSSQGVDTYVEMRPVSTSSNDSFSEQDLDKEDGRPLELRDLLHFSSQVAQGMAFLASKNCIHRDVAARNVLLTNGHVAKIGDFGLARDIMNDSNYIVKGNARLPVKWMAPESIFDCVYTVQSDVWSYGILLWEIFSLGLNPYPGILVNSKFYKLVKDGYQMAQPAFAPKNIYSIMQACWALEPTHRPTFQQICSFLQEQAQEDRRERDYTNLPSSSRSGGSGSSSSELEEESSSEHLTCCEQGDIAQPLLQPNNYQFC
Summary of the method: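 Recombinant human Fms phosphorylating 30 nM biotin-(E4Y)10 with 100 μM ATP (1 ng/well enzyme) in Hepes pH 7.5 buffer with Mg2+/Mn2+, 5% DMSO, 20 min at 30 °C. Phosphotyrosine detected by AlphaScreen streptavidin donor/PY20 acceptor beads; IC50 from signal versus compound concentration.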

[1] = read-out: Biochemical activity (IC50 μM) Fms
[2] = 100 μM ATP, read-out: Biochemical (IC50 μM) Fms
[3] = human, CYP2C9 enzyme (BD Biosciences), 45 min

c-Kit kinase, sequence (P10721 26-976): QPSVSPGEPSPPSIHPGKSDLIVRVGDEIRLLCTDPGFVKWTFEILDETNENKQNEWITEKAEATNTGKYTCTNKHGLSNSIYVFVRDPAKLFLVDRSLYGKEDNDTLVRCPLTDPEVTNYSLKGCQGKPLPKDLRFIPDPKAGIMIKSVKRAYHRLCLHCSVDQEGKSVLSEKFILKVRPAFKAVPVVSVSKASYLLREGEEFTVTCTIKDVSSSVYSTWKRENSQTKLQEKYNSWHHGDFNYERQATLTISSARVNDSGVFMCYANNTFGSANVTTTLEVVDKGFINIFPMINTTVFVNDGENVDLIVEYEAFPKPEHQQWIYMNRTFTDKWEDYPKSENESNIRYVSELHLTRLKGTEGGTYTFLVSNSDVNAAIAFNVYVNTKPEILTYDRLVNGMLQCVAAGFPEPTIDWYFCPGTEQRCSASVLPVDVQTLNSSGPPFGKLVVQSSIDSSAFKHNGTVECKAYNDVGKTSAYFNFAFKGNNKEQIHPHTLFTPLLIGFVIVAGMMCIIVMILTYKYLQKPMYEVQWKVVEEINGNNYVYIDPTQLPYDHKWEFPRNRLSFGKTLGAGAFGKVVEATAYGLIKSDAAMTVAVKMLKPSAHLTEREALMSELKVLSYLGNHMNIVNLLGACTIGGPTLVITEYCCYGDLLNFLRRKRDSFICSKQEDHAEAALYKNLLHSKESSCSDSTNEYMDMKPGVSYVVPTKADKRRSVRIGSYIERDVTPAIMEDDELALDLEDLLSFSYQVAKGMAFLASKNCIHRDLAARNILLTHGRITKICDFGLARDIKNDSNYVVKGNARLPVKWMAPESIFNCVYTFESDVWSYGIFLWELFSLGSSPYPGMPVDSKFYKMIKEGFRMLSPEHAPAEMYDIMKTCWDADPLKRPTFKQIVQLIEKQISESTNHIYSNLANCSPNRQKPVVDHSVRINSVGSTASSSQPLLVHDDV

Row | SMILES | IC50 (c-Kit kinase) [µM] | IC50 (CYP2D6) [µM] | pIC50 (CYP3A4(BFC)) | IC50 (CYP2C19) [µM] | pIC50 (CYP3A4(BQ)) | pIC50 (CYP1A2; human, 15 min) | IC50 (CYP2C9) [µM] | Biochemical activity selectivity (Kit IC50/Fms IC50) (Fms kinase) | IC50 (Fms kinase; [1]) [µM] | pIC50 (CYP2C9) | IC50 (CYP3A4(BFC)) [µM] | IC50 (CYP3A4(BQ)) [µM] | pIC50 (CYP1A2) | IC50 (Fms kinase; [2]) [µM] | pIC50 (CYP2D6) | pIC50 (CYP2C19) | IC50 (CYP1A2; read-out: Cyp IC50 (μM) 1A2) [µM] | pIC50 (CYP2C9; [3])
1 | COc1ccc(CNc2ncc(Cc3c[nH]c4ncc(C)cc34)cc2F)cn1 [Compound P-1562, [3-Fluoro-5-(5-methyl-1H-pyrrolo[2,3-b]pyridin-3-ylmethyl)-pyridin-2-yl]-(6-methoxy-pyridin-3-ylmethyl)-amine] | < 0.1 | > 10 | 5.00 to 5.30 | > 10 | 5.00 to 5.30 | < 5.00 | < 5 | <20 | < 0.1 | – | – | – | – | – | – | – | – | –
2 | COc1ncc(F)cc1CNc1ccc(Cc2c[nH]c3ncc(NC(C)=O)cc23)c(F)n1 [Compound P-1669, N-(3-{2-fluoro-6-[(5-fluoro-2-methoxy-pyridin-3-ylmethyl)-amino]-pyridin-3-ylmethyl}-1H-pyrrolo[2,3-b]pyridin-5-yl)-acetamide] | – | > 10 | 5.00 to 5.30 | > 10 | – | < 5.00 | < 5 | – | – | – | – | – | – | – | – | – | – | –
3 | Fc1cncc(CNc2ccc(Cc3c[nH]c4ncc(Cl)cc34)c(F)n2)c1 [Compound P-2001, [5-(5-Chloro-1H-pyrrolo[2,3-b]pyridin-3-ylmethyl)-6-fluoro-pyridin-2-yl]-(5-fluoro-pyridin-3-ylmethyl)-amine] | > 0.1 | > 10 | 5.00 to 5.30 | < 5 | 5.00 to 5.30 | < 5.00 | – | >20 | < 0.1 | 5.00 to 5.30 | – | – | – | – | – | – | – | –
4 | Clc1cnc2[nH]cc(Cc3ccc(NCc4ccc(Cl)nc4)nc3)c2c1 [Compound P-2003] | < 0.1 | > 10 | – | 5 to 10 | – | – | < 5 | <20 | < 0.1 | – | 5 to 10 | > 10 | < 5.00 | < 0.1 | – | – | – | –
5 | Fc1ccc(CNc2ccc(Cc3c[nH]c4ncc(Cl)cc34)cn2)cn1 [Compound P-2004, [5-(5-chloro-1H-pyrrolo[2,3-b]pyridin-3-ylmethyl)-pyridin-2-yl]-(6-fluoro-pyridin-3-ylmethyl)-amine] | < 0.1 | – | – | – | 5.00 to 5.30 | – | < 5 | <20 | < 0.1 | – | < 5 | – | – | < 0.1 | 5.00 to 5.30 | 5.00 to 5.30 | > 10 | –
6 | Cc1cnc2[nH]cc(Cc3ccc(NCc4ccc(C(F)(F)F)nc4)nc3)c2c1 [Compound P-2019, [5-(5-Methyl-1H-pyrrolo[2,3-b]pyridin-3-ylmethyl)-pyridin-2-yl]-(6-trifluoromethyl-pyridin-3-ylmethyl)-amine] | < 0.1 | < 5 | – | – | – | < 5.00 | – | <20 | < 0.1 | – | < 5 | > 10 | – | < 0.1 | – | 5.00 to 5.30 | – | > 5.30
7 | COc1ccc(CNc2ccc(Cc3c[nH]c4ncc(C)cc34)c(F)n2)cn1 [Compound P-2029, [6-Fluoro-5-(5-methyl-1H-pyrrolo[2,3-b]pyridin-3-ylmethyl)-pyridin-2-yl]-(6-methoxy-pyridin-3-ylmethyl)-amine] | > 0.1 | > 10 | 5.00 to 5.30 | < 5 | 5.00 to 5.30 | < 5.00 | < 5 | >20 | < 0.1 | – | – | – | – | < 0.1 | – | – | – | –
8 | COc1cnc2[nH]cc(Cc3ccc(NCc4ccc(OC)nc4)nc3F)c2c1 [Compound P-2030, [6-Fluoro-5-(5-methoxy-1H-pyrrolo[2,3-b]pyridin-3-ylmethyl)-pyridin-2-yl]-(6-methoxy-pyridin-3-ylmethyl)-amine] | > 0.1 | > 10 | 5.00 to 5.30 | < 5 | – | < 5.00 | < 5 | <20 | < 0.1 | – | – | > 10 | – | < 0.1 | – | – | – | –
9 | COc1ccnc2[nH]cc(Cc3ccc(NCc4ccc(Cl)cc4)nc3F)c12 [Compound P-2037, (4-Chloro-benzyl)-[6-fluoro-5-(4-methoxy-1H-pyrrolo[2,3-b]pyridin-3-ylmethyl)-pyridin-2-yl]-amine] | > 0.1 | > 10 | 5.00 to 5.30 | < 5 | – | < 5.00 | < 5 | <20 | < 0.1 | – | – | > 10 | – | < 0.1 | – | – | – | –
10 | COc1ccc(CNc2ncc(Cc3c[nH]c4ncc(C)cc34)cn2)cn1 [Compound P-2057, (6-Methoxy-pyridin-3-ylmethyl)-[5-(5-methyl-1H-pyrrolo[2,3-b]pyridin-3-ylmethyl)-pyrimidin-2-yl]-amine] | > 0.1 | > 10 | – | – | – | < 5.00 | – | <20 | < 0.1 | 5.00 to 5.30 | > 10 | > 10 | – | < 0.1 | – | 5.00 to 5.30 | – | –
11 | COc1ncc(F)cc1CNc1ncc(Cc2c[nH]c3ncc(C)cc23)cn1 [Compound P-2061, (5-Fluoro-2-methoxy-pyridin-3-ylmethyl)-[5-(5-methyl-1H-pyrrolo[2,3-b]pyridin-3-ylmethyl)-pyrimidin-2-yl]-amine] | > 0.1 | > 10 | – | > 10 | 5.00 to 5.30 | < 5.00 | – | >20 | < 0.1 | 5.00 to 5.30 | > 10 | – | – | – | – | – | – | –
12 | Cc1ccc(CNc2ccc(Cc3c[nH]c4ncc(C)cc34)c(F)n2)nc1 [Compound P-2131, [6-Fluoro-5-(5-methyl-1H-pyrrolo[2,3-b]pyridin-3-ylmethyl)-pyridin-2-yl]-(5-methyl-pyridin-2-ylmethyl)-amine] | > 0.1 | – | – | – | – | < 5.00 | – | >20 | < 0.1 | – | < 5 | > 10 | – | – | – | 5.00 to 5.30 | – | > 5.30
13 | Fc1cc(Cc2c[nH]c3ncc(Cl)cc23)cnc1NCc1ccc(C(F)(F)F)nc1 [Compound P-2172, [5-(5-Chloro-1H-pyrrolo[2,3-b]pyridin-3-ylmethyl)-3-fluoro-pyridin-2-yl]-(6-trifluoromethyl-pyridin-3-ylmethyl)-amine] | < 0.1 | > 10 | – | < 5 | – | < 5.00 | – | <20 | < 0.1 | 5.00 to 5.30 | > 10 | – | – | – | – | – | – | –
14 | CCS(=O)(=O)Nc1ccccc1CNc1ccc(Cc2c[nH]c3ncc(C)cc23)c(F)n1 [Compound P-2198, Ethanesulfonic acid (2-{[6-fluoro-5-(5-methyl-1H-pyrrolo[2,3-b]pyridin-3-ylmethyl)-pyridin-2-ylamino]-methyl}-phenyl)-amide] | > 0.1 | > 10 | – | < 5 | – | < 5.00 | – | <20 | < 0.1 | 5.00 to 5.30 | < 5 | – | – | – | – | – | – | –
